Earlier results, collected in publication PMC8202924, “Emodepside targets SLO-1 channels of Onchocerca ochengi and induces broad anthelmintic effects in a bovine model of onchocerciasis” (PLoS Pathogens, 2021).

Test system: O. volvulus
Details: from ~10 years to 2–3 years; cited from earlier work

C[C@H]1c2cccc(O)c2C(=O)C2=C(O)[C@]3(O)C(=O)C(C(N)=O)=C(O)[C@@H](N(C)C)[C@@H]3[C@@H](O)[C@@H]21 [doxycycline]
Reduction in worm lifespan: 70–80%
